Assay results: US8569295B2, “Bicyclic urea compounds” (Merck Patent GmbH, priority 2009, dated 2013)

Molecular target: T1, GST-Aurora A (Homo sapiens, UniProt O14965)
T1 construct: N-terminal GST fusion with full length Aurora A (1-403 amino acids); purchased Carna Biosciences 05-101
T1 sequence (O14965 1-403): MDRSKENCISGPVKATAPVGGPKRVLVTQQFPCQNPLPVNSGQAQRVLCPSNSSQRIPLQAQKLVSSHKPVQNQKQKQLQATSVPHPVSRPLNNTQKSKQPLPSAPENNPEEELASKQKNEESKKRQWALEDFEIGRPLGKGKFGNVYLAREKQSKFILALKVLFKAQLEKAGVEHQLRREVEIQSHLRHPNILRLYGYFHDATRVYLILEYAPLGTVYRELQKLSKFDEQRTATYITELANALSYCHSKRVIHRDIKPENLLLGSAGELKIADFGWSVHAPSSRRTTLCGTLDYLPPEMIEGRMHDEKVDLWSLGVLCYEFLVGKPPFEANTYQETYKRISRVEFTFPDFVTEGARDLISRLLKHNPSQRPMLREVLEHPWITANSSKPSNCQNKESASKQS
Assay: Aurora A kinase biochemical mobility shift assay (Caliper LC3000 / Desktop Profiler)
Settings: AK A (Aurora kinase A) inhibition
Method: The Aurora assays described here are performed on two Caliper Life Sciences systems: the LC3000 and the Desktop Profiler. The RON kinase assays are performed on the Desktop Profiler only. These provide data on enzyme activity via measurement of the relative amounts of phosphorylated or unphosphorylated fluorescently labelled substrate peptide at the end of an enzymatic reaction. These different states of peptide are resolved by applying a potential difference across the sample. The presence of the charged phosphate group on the product (as opposed to the substrate) causes a different peptide mobility between the two peptides. This is visualized by excitation of the fluorescent label on the substrate and product peptides and represented as peaks within the analysis software.
In order to measure inhibitor activity of Aurora A inhibitors in the Caliper Life Sciences LC3000, a TTP Mosquito liquid handling instrument is used to place 0.25 ul of the appropriate concentration of inhibitor in 100% DMSO (for a dose response curve calculation) into each well of a 384-well plate. To this reaction components are added to a final volume of 25 ul: • 0.067 ng/ul GST-Aurora A (Carna Biosciences 05-101. N-terminal GST fusion with full length Aurora A (1-403 amino acids), accession number NP_940835.1). • 15 uM ATP (Fluka, 02055) • 1 mM DTT (Sigma, D0632) • 1 mM MgCl2 (Sigma, M1028) • 1 uM substrate peptide (sequence FITC-LRRASLG-(CONH2), synthesized by Tufts Peptide Synthesis service. • 100 mM HEPES pH 7.5 (Calbiochem, 391338) • 0.015% Brij-35 (Sigma, B4184)
The reaction is incubated for 90 min at 25 C, and then stopped by the addition of 70 ul of Stop buffer (100 mM HEPES pH 7.5, 0.015% Brij-35, 10 mM EDTA (Sigma, E7889)).
The plate is read on a Caliper LC3000 in an Off-Chip mobility shift assay format, using the following parameters for a 12-sipper chip: screening pressure −1.8 psi, upstream voltage −2700, downstream voltage −1000. These conditions cause unphosphorylated substrate and phosphorylated product peptide to resolve as separate peaks allowing direct measurement of percentage of conversion of substrate to product. The percent conversion can be plotted against concentration of inhibitor to produce a sigmoidal dose response curve, from which an IC50 can be calculated using XLFit for Microsoft Excel.
The Desktop Profiler utilizes the same priniciple as the LC3000 for calculating percentage conversion of a substrate to product. Caliper Life Sciences provides proprietary flash frozen pre-made 384 well plates containing selected kinases. Each column in the 384 well plate contains a particular selected kinase. A second plate, the ‘substrate plate’ contains a mix of fluorescently labeled peptide substrate and ATP. These are arranged in columns so that transfer for substrate plate to enzyme plate provides the correct enzyme with the correct substrate/ATP concentration. Compounds are added to a thawed enzyme plate in the desired format, in single concentrations. Reactions are initiated by transfer of the substrate/ATP mix from the substrate plate. The enzyme plate is incubated for 90 minutes at 25 C. The reaction is stopped by addition of 70 ul of Stop Buffer (100 mM HEPES pH 7.5, 0.015% Brij-35, 10 mM EDTA (Sigma, E7889)).
Reading of the plate in the Profiler is identical to the LC3000, and the ratio between substrate and product peaks provides the activity of the enzyme in that well. This is best represented by a plate heat map which colors each well by percent inhibition as compared to positive and negative controls (no inhibitors and no ATP respectively).

Row | SMILES | IC50
1 | O=C(Nc1ccc(Nc2ccnc3c2CN(CC(F)(F)F)C(=O)N3)cc1)c1ccccc1 [Example 37, N-(4-(2-oxo-3-(2,2,2-trifluoroethyl)-1,2,3,4-tetrahydropyrido[2,3-d]pyrimidin-5-ylmino)phenyl)benzamide] | 10 to 100 nM
2 | O=C(Nc1ccc(Nc2ccnc3c2CN(CCCO)C(=O)N3)cc1)c1ccc(F)cc1C(F)(F)F [Example 32, 4-fluoro-N-(4-(3-(3-hydroxypropyl)-2-oxo-1,2,3,4-tetrahydropyrido [2,3-d]pyrimidin-5-ylamino)phenyl)-2-(trifluoromethyl) benzamide] | < 10 nM
3 | O=C1NCc2c(Nc3ccc(NC(=O)c4cccc(F)c4)cc3F)ccnc2N1 [Example 117, 3-fluoro-N-{3-fluoro-4-[(2-oxo-1,2,3,4-tetrahydropyrido[2,3-d]pyrimidin-5-yl)amino]phenyl}benzamide] | 10 to 100 nM
4 | CN1Cc2c(Nc3ccc(NC(=O)c4cccc(F)c4F)c(F)c3)ccnc2NC1=O [Example 39, 2,3-difluoro-N-(2-fluoro-4-(3-methyl-2-oxo-1,2,3,4-tetrahydropyrido [2,3-d]pyrimidin-5-ylamino)phenyl) benzamide] | 10 to 100 nM
5 | O=C1NCc2c(Nc3ccc(NC(=O)c4ccccc4F)cc3F)ccnc2N1 [Example 118, 2-fluoro-N-{3-fluoro-4-[(2-oxo-1,2,3,4-tetrahydropyrido[2,3-d]pyrimidin-5-yl)amino]phenyl}benzamide] | 10 to 100 nM
6 | COc1cc(CNC(=O)c2ccc(-c3ccnc4c3CNC(=O)N4)s2)ccc1F [Example 130, N-(4-fluoro-3-methoxybenzyl)-5-(2-oxo-1,2,3,4-tetrahydropyrido[2,3-d]pyrimidin-5-yl)thiophene-2-carboxamide] | 10 to 100 nM
7 | O=C(Nc1ccc(Nc2ccnc3c2CN(c2ccccc2)C(=O)N3)c(F)c1)c1cccc(F)c1 [Example 26, 3-fluoro-N-(3-fluoro-4-(2-oxo-3-phenyl-1,2,3,4-tetrahydropyrido [2,3-d]pyrimidin-5-ylamino)phenyl) benzamide] | 10 to 100 nM
8 | CN1Cc2c(Nc3ccc(NC(=O)CC4CC4)cc3)ccnc2NC1=O [Example 23, 2-cyclopropyl-N-(4-(3-methyl-2-oxo-1,2,3,4-tetrahydropyrido [2,3-d]pyrimidin-5-ylamino)phenyl) acetamide] | 100 to 1000 nM
9 | CN1Cc2c(Nc3ccc(NC(=O)c4ccccc4)cc3)ccnc2NC1=O [Example 22, N-(4-(3-methyl-2-oxo-1,2,3,4-tetrahydropyrido [2,3-d]pyrimidin-5-ylamino)phenyl) benzamide] | 10 to 100 nM
10 | COc1ccc(CN2Cc3c(Nc4ccc(NC(=O)c5ccccc5F)cc4F)ccnc3NC2=O)cc1 [Example 114, 2-fluoro-N-(3-fluoro-4-{[3-(4-methoxybenzyl)-2-oxo-1,2,3,4-tetrahydropyrido[2,3-d]pyrimidin-5-yl]amino}phenyl)benzamide] | 100 to 1000 nM
11 | CCN1Cc2c(Nc3ccc(NC(=O)c4ccccc4)cc3)ccnc2NC1=O [Example 35, N-(4-(3-ethyl-2-oxo-1,2,3,4-tetrahydropyrido [2,3-d]pyrimidin-5-ylamino)phenyl) benzamide] | 10 to 100 nM
12 | O=C(Nc1ccc(Nc2ccnc3c2C2OCCN2C(=O)N3)cc1)c1ccc(F)cc1C(F)(F)F (centres unmarked) [Example 43, 4-fluoro-N-(4-(5-oxo-3,5,6,10b-tetrahydro-2H-oxazolo[3,2-c]pyrido [3,2-e]pyrimidin-10-ylamino)phenyl)-2-(trifluoromethyl) benzamide] | 100 to 1000 nM
13 | CCN1Cc2c(Nc3ccc(NC(=O)c4ccc(F)cc4C(F)(F)F)cc3)ccnc2NC1=O [Example 34, N-(4-(3-ethyl-2-oxo-1,2,3,4-tetrahydropyrido [2,3-d]pyrimidin-5-ylamino)phenyl)-4-fluoro-2-(trifluoromethyl) benzamide] | < 10 nM
14 | CN1Cc2c(Nc3ccc(NC(=O)CC(F)(F)F)cc3)ccnc2NC1=O [Example 24, 3,3,3-trifluoro-N-(4-(3-methyl-2-oxo-1,2,3,4-tetrahydropyrido [2,3-d]pyrimidin-5-ylamino)phenyl) propanamide] | 100 to 1000 nM
